Data reported in ChEMBL document CHEMBL1649229, “Efficacy of high doses of daptomycin versus alternative therapies against experimental foreign-body infection by methicillin-resistant Staphylococcus aureus” (Antimicrob Agents Chemother, 2009).
≈ marks a conversion by molar mass, not a printed value. Calls of active or inactive are those of the source. The calls are words filed in the database; no cut-off is given here.

Key:
[1] = Cmax in serum of human infected with methicillin-resistant Staphylococcus aureus HUSA 304 at 10 mg/kg/day, […]; assay type: ADME, organism-based; design: dose 10 mg/kg/day, route intraperitoneal
[2] = Cmax in serum of human infected with methicillin-resistant Staphylococcus aureus HUSA 304 at 6 mg/kg/day, […]; assay type: ADME, organism-based; design: dose 6 mg/kg/day
[3] = fT>MIC in methicillin-resistant Staphylococcus aureus HU 304 infected in Wistar rat at 70 mg/kg/day, ip for 7 days; assay type: functional; conditions: route intraperitoneal
[4] = system: Staphylococcus aureus; experiment: Antimicrobial activity against log-phase methicillin-resistant Staphylococcus aureus HUSA 304 assessed as resistant bacteria on coverslip selected on 1 to 5 ug/ml of compound measured on day 11 post treatment in presence of 50 mg/L calcium ions; assay type: functional, organism-based
[5] = system: Staphylococcus aureus; experiment: Antimicrobial activity against methicillin-resistant Staphylococcus aureus HUSA 304 infected in Wistar rat assessed as decrease in bacterial load in tissue cage fluid at 100 mg/kg/day, ip administered for 7 days measured on day 11 post treatment in presence of 50 mg/L calcium ions; assay type: functional; conditions: route intraperitoneal
[6] = system: Staphylococcus aureus; experiment: Antimicrobial activity against log-phase methicillin-resistant Staphylococcus aureus HUSA 304 selected on 1 to 5 ug/ml of compound measured after 5 days by M7-A6 method in presence of 50 mg/L calcium ions; assay type: functional; conditions: HUSA 304, 120 h
[7] = AUC (0 to infinity) in tissue cage fluid of Wistar rat infected with methicillin-resistant Staphylococcus aureus HUSA 304 at 100 mg/kg/day, ip; assay type: ADME, organism-based; design: dose 100 mg/kg/day, time infinity, route intraperitoneal
[8] = Cmax in serum of Wistar rat infected with methicillin-resistant Staphylococcus aureus HUSA 304 at 100 mg/kg/day, ip for 7 days; assay type: ADME, organism-based; design: dose 100 mg/kg/day, route intraperitoneal
[9] = system: Staphylococcus aureus; experiment: Bactericidal activity against stationary-phase methicillin-resistant Staphylococcus aureus HUSA 304 after 24 hrs by time kill analysis; assay type: functional; conditions: HUSA 304, 24 h
[10] = AUC (0 to infinity) in serum of Wistar rat infected with methicillin-resistant Staphylococcus aureus HUSA 304 at 70 mg/kg/day, ip for 7 days; assay type: ADME, organism-based; design: dose 70 mg/kg/day, time infinity, route intraperitoneal
[11] = Ratio of Cmax in tissue cage fluid of Wistar rat infected with methicillin-resistant Staphylococcus aureus HUSA 304 at 100 mg/kg/day, ip to MIC for methicillin-resistant Staphylococcus aureus HUSA 304; assay type: functional; conditions: route intraperitoneal
[12] = Cmax in tissue cage fluid of Wistar rat infected with methicillin-resistant Staphylococcus aureus HUSA 304 at 45 mg/kg/day, ip; assay type: ADME, organism-based, Interstitial fluid; design: dose 45 mg/kg/day, route intraperitoneal
[13] = AUC (0 to infinity) in tissue cage fluid of Wistar rat infected with methicillin-resistant Staphylococcus aureus HUSA 304 at 45 mg/kg/day, ip; assay type: ADME, organism-based; design: dose 45 mg/kg/day, time infinity, route intraperitoneal
[14] = AUC (0 to infinity) in tissue cage fluid of Wistar rat infected with methicillin-resistant Staphylococcus aureus HUSA 304 at 70 mg/kg/day, ip; assay type: ADME, organism-based; design: dose 70 mg/kg/day, time infinity, route intraperitoneal
[15] = system: Staphylococcus aureus; experiment: Antimicrobial activity against log-phase methicillin-resistant Staphylococcus aureus HUSA 304 by M7-A6 method in presence of 50 mg/L calcium ions; assay type: functional
[16] = system: Staphylococcus aureus; experiment: Antimicrobial activity against methicillin-resistant Staphylococcus aureus HUSA 304 infected in Wistar rat assessed as decrease in bacterial load in tissue cage fluid at 100 mg/kg/day, ip administered for 7 days measured on day 8 post treatment in presence of 50 mg/L calcium ions; assay type: functional; conditions: route intraperitoneal
[17] = AUC (0 to infinity) in serum of Wistar rat infected with methicillin-resistant Staphylococcus aureus HUSA 304 at 45 mg/kg/day, ip for 7 days; assay type: ADME, organism-based; design: dose 45 mg/kg/day, time infinity, route intraperitoneal
[18] = system: Staphylococcus aureus; experiment: Bactericidal activity against log-phase methicillin-resistant Staphylococcus aureus HUSA 304 after 24 hrs by time kill analysis; assay type: functional; conditions: HUSA 304, 24 h
[19] = Ratio of AUC (0 to infinity) in tissue cage fluid of Wistar rat infected with methicillin-resistant Staphylococcus aureus HUSA 304 at 100 mg/kg/day, ip to MIC for methicillin-resistant Staphylococcus aureus HUSA 304; assay type: functional; conditions: route intraperitoneal
[20] = Ratio of AUC (0 to infinity) in tissue cage fluid of Wistar rat infected with methicillin-resistant Staphylococcus aureus HUSA 304 at 45 mg/kg/day, ip to MIC for methicillin-resistant Staphylococcus aureus HUSA 304; assay type: functional; conditions: route intraperitoneal
[21] = Cmax in serum of human infected with methicillin-resistant Staphylococcus aureus HUSA 304 at 8 mg/kg/day, […]; assay type: ADME, organism-based; design: dose 8 mg/kg/day, route intraperitoneal
[22] = Cmax in tissue cage fluid of Wistar rat infected with methicillin-resistant Staphylococcus aureus HUSA 304 at 70 mg/kg/day, ip; assay type: ADME, organism-based, Interstitial fluid; design: dose 70 mg/kg/day, route intraperitoneal
[23] = AUC (0 to 24 hrs) in serum of human infected with methicillin-resistant Staphylococcus aureus HUSA 304 at 6 mg/kg/day, […]; assay type: ADME, organism-based; design: time < 24 hr, dose 6 mg/kg/day
[24] = Cmax in serum of Wistar rat infected with methicillin-resistant Staphylococcus aureus HUSA 304 at 45 mg/kg/day, ip for 7 days; assay type: ADME, organism-based; design: dose 45 mg/kg/day, route intraperitoneal
[25] = Ratio of Cmax in tissue cage fluid of Wistar rat infected with methicillin-resistant Staphylococcus aureus HUSA 304 at 70 mg/kg/day, ip to MIC for methicillin-resistant Staphylococcus aureus HUSA 304; assay type: functional; conditions: route intraperitoneal
[26] = system: Staphylococcus aureus; experiment: Antimicrobial activity against log-phase methicillin-resistant Staphylococcus aureus HUSA 304 assessed as resistant bacteria in tissue cage fluid selected on 1 to 5 ug/ml of compound measured on day 8 post treatment in presence of 50 mg/L calcium ions; assay type: functional, organism-based
[27] = AUC (0 to infinity) in serum of Wistar rat infected with methicillin-resistant Staphylococcus aureus HUSA 304 at 100 mg/kg/day, ip for 7 days; assay type: ADME, organism-based; design: dose 100 mg/kg/day, time infinity, route intraperitoneal
[28] = fT>MIC in methicillin-resistant Staphylococcus aureus HU 304 infected in Wistar rat at 100 mg/kg/day, ip for 7 days; assay type: functional; conditions: route intraperitoneal
[29] = Ratio of AUC (0 to infinity) in tissue cage fluid of Wistar rat infected with methicillin-resistant Staphylococcus aureus HUSA 304 at 70 mg/kg/day, ip to MIC for methicillin-resistant Staphylococcus aureus HUSA 304; assay type: functional; conditions: route intraperitoneal
[30] = AUC (0 to 24 hrs) in serum of human infected with methicillin-resistant Staphylococcus aureus HUSA 304 at 8 mg/kg/day, […]; assay type: ADME, organism-based; design: dose 8 mg/kg/day, time < 24 hr
[31] = Ratio of Cmax in tissue cage fluid of Wistar rat infected with methicillin-resistant Staphylococcus aureus HUSA 304 at 45 mg/kg/day, ip to MIC for methicillin-resistant Staphylococcus aureus HUSA 304; assay type: functional; conditions: route intraperitoneal
[32] = system: Staphylococcus aureus; experiment: Antimicrobial activity against log-phase methicillin-resistant Staphylococcus aureus HUSA 304 assessed as resistant bacteria in tissue cage fluid selected on 1 to 5 ug/ml of compound measured on day 11 post treatment in presence of 50 mg/L calcium ions; assay type: functional, organism-based
[33] = fT>MIC in methicillin-resistant Staphylococcus aureus HU 304 infected in Wistar rat at 45 mg/kg/day, ip for 7 days; assay type: functional; conditions: route intraperitoneal
[34] = AUC (0 to 24 hrs) in serum of human infected with methicillin-resistant Staphylococcus aureus HUSA 304 at 10 mg/kg/day, […]; assay type: ADME, organism-based; design: dose 10 mg/kg/day, time < 24 hr
[35] = Cmax in serum of Wistar rat infected with methicillin-resistant Staphylococcus aureus HUSA 304 at 70 mg/kg/day, ip for 7 days; assay type: ADME, organism-based; design: dose 70 mg/kg/day, route intraperitoneal
[36] = Cmax in tissue cage fluid of Wistar rat infected with methicillin-resistant Staphylococcus aureus HUSA 304 at 100 mg/kg/day, ip; assay type: ADME, organism-based, Interstitial fluid; design: dose 100 mg/kg/day, route intraperitoneal
[37] = system: Staphylococcus aureus; experiment: Antimicrobial activity against methicillin-resistant Staphylococcus aureus HUSA 304 infected in Wistar rat assessed as decrease in bacterial load in tissue cage fluid at 35 mg/kg, ip administered every 12 hrs for 7 days measured on day 8 post treatment; assay type: functional; conditions: route intraperitoneal
[38] = system: Staphylococcus aureus; experiment: Bactericidal activity against log-phase methicillin-resistant Staphylococcus aureus HUSA 304 after 24 hrs by time kill analysis in presence of 50 mg/L calcium ions; assay type: functional; conditions: HUSA 304, 24 h
[39] = system: Staphylococcus aureus; experiment: Antimicrobial activity against log-phase methicillin-resistant Staphylococcus aureus HUSA 304 by M7-A6 method; assay type: functional
[40] = system: Staphylococcus aureus; experiment: Bactericidal activity against stationary-phase methicillin-resistant Staphylococcus aureus HUSA 304 after 24 hrs by time kill analysis in presence of 50 mg/L calcium ions; assay type: functional; conditions: HUSA 304, 24 h
[41] = system: Staphylococcus aureus; experiment: Antimicrobial activity against methicillin-resistant Staphylococcus aureus HUSA 304 infected in Wistar rat assessed as decrease in bacterial load in tissue cage fluid at 35 mg/kg, ip administered every 12 hrs for 7 days measured on day 11 post treatment; assay type: functional; conditions: route intraperitoneal

## CCCCCCCCCC(=O)N[C@@H](Cc1c[nH]c2ccccc12)C(=O)N[C@H](CC(N)=O)C(=O)N[C@@H](CC(=O)O)C(=O)N[C@@H]1C(=O)NCC(=O)N[C@@H](CCCN)C(=O)N[C@@H](CC(=O)O)C(=O)N[C@H](C)C(=O)N[C@@H](CC(=O)O)C(=O)NCC(=O)N[C@H](CO)C(=O)N[C@@H]([C@H](C)CC(=O)O)C(=O)N[C@@H](CC(=O)c2ccccc2N)C(=O)O[C@@H]1C
[1]
  Cmax: 130 µg/mL
[2]
  Cmax: 95 µg/mL
[3]
  fT>MIC: 100%
[4]
  Activity: Active
[5]
  log10cfu: 2.57
[6]
  MIC: 1 µg/mL
[7]
  AUC(0-inf): 1100 µg·h/mL
[8]
  Cmax: 140 µg/mL
[9]
  MBC: 24 µg/mL (≈ 14.8 µM)
[10]
  AUC(0-inf): 984 µg·h/mL
[11]
  Ratio: 40
[12]
  Cmax: 26 µg/mL
[13]
  AUC(0-inf): 795 µg·h/mL
[14]
  AUC(0-inf): 953 µg·h/mL
[15]
  MIC: 1 µg/mL
[16]
  log10cfu: 2.26
[17]
  AUC(0-inf): 830 µg·h/mL
[18]
  MBC: 4 µg/mL (≈ 2.47 µM)
[19]
  RatioAUC/MIC: 1100
[20]
  RatioAUC/MIC: 795
[21]
  Cmax: 106 µg/mL
[22]
  Cmax: 34 µg/mL
[23]
  AUC at 24 h: 730 µg·h/mL
[24]
  Cmax: 103 µg/mL
[25]
  Ratio: 34
[26]
  Activity: Active
[27]
  AUC(0-inf): 1200 µg·h/mL
[28]
  fT>MIC: 100%
[29]
  RatioAUC/MIC: 953
[30]
  AUC at 24 h: 773 µg·h/mL
[31]
  Ratio: 26
[32]
  Activity: Active
[33]
  fT>MIC: 100%
[34]
  AUC at 24 h: 1010 µg·h/mL
[35]
  Cmax: 128 µg/mL
[36]
  Cmax: 40 µg/mL

## CO[C@H]1/C=C/O[C@@]2(C)Oc3c(C)c(O)c4c(O)c(c(/C=N/N5CCN(C)CC5)c(O)c4c3C2=O)NC(=O)/C(C)=C\C=C\[C@H](C)[C@H](O)[C@@H](C)[C@@H](O)[C@@H](C)[C@H](OC(C)=O)[C@@H]1C [RIFAMPIN]
[37]
  log10cfu: 1.36
[38]
  MBC: 0.5 µg/mL
[39]
  MIC: 0.03 µg/mL (≈ 0.0365 µM)
[40]
  MBC: > 8 µg/mL
[41]
  log10cfu: 1.1
